In patent US12473289B2, “Heterocyclic compounds as delta-5 desaturase inhibitors and methods of use” (Amgen Inc., priority 2019, dated 2025) one finds IC50 data, which are given here for 23 compounds.

The experiment addresses Delta-5-Desaturase (D5D) (Homo sapiens (Human), UniProt O60427). Put plainly: In vitro measurement of Delta-5-Desaturase inhibitory activity using DGLA-CoA and Arachidonyl-CoA mass spectrometric assays. Format: biochemical. Particulars: membrane preparations of D5D-overexpressing HEK293 6E cells; averaged over at least two independent runs. In outline: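 DGLA-CoA and arachidonyl-CoA were read by RapidFire SPE triple-quad MS (negative mode, MRM) after a 1 h ambient-temperature reaction quenched with acetonitrile. Enzyme was D5D-overexpressing HEK293 6E membranes at 10 μg/mL final; substrate solution held 0.01 mM DGLA plus NADH, ATP and CoA. Inhibition was referenced to DMSO and no-enzyme wells; 4PL IC50.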

Each structure is given as a SMILES string.

Sequence of Delta-5-Desaturase (D5D) (O60427 whole entry, species assumed): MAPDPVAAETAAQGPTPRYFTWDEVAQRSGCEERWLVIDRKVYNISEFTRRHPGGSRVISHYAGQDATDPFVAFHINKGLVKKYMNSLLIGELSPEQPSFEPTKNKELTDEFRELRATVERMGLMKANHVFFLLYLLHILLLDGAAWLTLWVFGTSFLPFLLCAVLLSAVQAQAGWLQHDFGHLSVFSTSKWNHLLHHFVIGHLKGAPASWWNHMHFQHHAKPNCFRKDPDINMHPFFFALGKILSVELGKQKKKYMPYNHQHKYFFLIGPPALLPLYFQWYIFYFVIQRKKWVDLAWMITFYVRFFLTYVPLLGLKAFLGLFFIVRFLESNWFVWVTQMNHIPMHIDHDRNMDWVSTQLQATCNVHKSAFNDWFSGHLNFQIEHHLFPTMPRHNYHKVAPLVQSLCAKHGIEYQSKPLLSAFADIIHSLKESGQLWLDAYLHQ

The IC50 is the point on the concentration scale where inhibition reaches its midpoint. The compound `COc1cc2nc(C(F)(F)F)c(-c3cnn(CC(F)(F)C(F)(F)F)c3)c(=O)n2cn1` [Example 39-10, 8-methoxy-3-[1-(2,2,3,3,3-pentafluoropropyl)-1H-pyrazol-4-yl]-2-(trifluoromethyl)-4H-[1,3]diazino[1,6-a]pyrimidin-4-one] came in with an IC50 of 6.3 nM.
`O=c1c(-c2cnn(CC(F)(F)C(F)(F)F)c2)c(C(F)(F)F)nc2cc(OCF)cnn12` [Example 47, 8-(Fluoromethoxy)-3-[1-(2,2,3,3,3-pentafluoropropyl)-1H-pyrazol-4-yl]-2-(trifluoromethyl)-4H-pyrimido[1,2-b]pyridazin-4-one] displayed an IC50 of 33.5 nM.
Compound `O=c1ccn2c(=O)c(-c3ccc(OCCF)cc3)c(C(F)(F)F)nc2[nH]1` [Example 1-56, 7-(4-(2-fluoroethoxy)phenyl)-8-(trifluoromethyl)-2H-pyrimido[1,2-a]pyrimidine-2,6(1H)-dione] had an IC50 of 9280 nM.
With `COCc1ccc2nc(C(F)(F)F)c(-c3cnn(CC(F)(F)C(F)(F)F)c3)c(=O)n2c1` [Example 39-24, 7-(methoxymethyl)-3-[1-(2,2,3,3,3-pentafluoropropyl)-1H-pyrazol-4-yl]-2-(trifluoromethyl)-4H-pyrido[1,2-a]pyrimidin-4-one], half-maximal inhibition (IC50) was put at 1520 nM. This IC50 is about 6.1-fold lower than that of the compound before.
Turning to `O=c1c(-c2cnn(CCC(F)(F)F)c2)c(C(F)(F)F)nc2ccc(C3CC3)cn12` [Example 39-22, 7-cyclopropyl-2-(trifluoromethyl)-3-[1-(3,3,3-trifluoropropyl)-1H-pyrazol-4-yl]-4H-pyrido[1,2-a]pyrimidin-4-one], the half-maximal inhibitory concentration (IC50) was found to be 2950 nM. Against the preceding compound, the IC50 is about 1.9-fold higher.
Compound `Cc1ccc2nc(C(F)(F)F)c(-c3cnn(CCC(F)(F)F)c3)c(=O)n2n1` [Example 39-33, 7-methyl-2-(trifluoromethyl)-3-[1-(3,3,3-trifluoropropyl)-1H-pyrazol-4-yl]-4H-pyrimido[1,2-b]pyridazin-4-one] showed an IC50 of 19.9 nM.
Take `C[C@@H](O)c1ccn2c(=O)c(-c3cnn(CC(F)(F)C(F)(F)F)c3)c(C(F)(F)F)nc2c1` [Example 31-1, 8-((1R)-1-hydroxyethyl)-3-(1-(2,2,3,3,3-pentafluoropropyl)-1H-pyrazol-4-yl)-2-(trifluoromethyl)-4H-pyrido[1,2-a]pyrimidin-4-one]: the IC50 came out at 164 nM.
Consider `COc1ccn2c(=O)c(-c3cnn(-c4ccc(C(F)(F)F)cc4)c3)c(C(F)(F)F)nc2c1` [Example 1-71, 8-methoxy-2-(trifluoromethyl)-3-(1-(4-(trifluoromethyl)phenyl)-1H-pyrazol-4-yl)-4H-pyrido[1,2-a]pyrimidin-4-one], for which half-maximal inhibition (IC50) required 4880 nM.
Consider `COc1cc2nc(C(F)(F)F)c(-c3cnn(CCC(F)(F)F)c3)c(=O)n2cc1Cl` [Example 39-2, 7-chloro-8-methoxy-2-(trifluoromethyl)-3-[1-(3,3,3-trifluoropropyl)-1H-pyrazol-4-yl]-4H-pyrido[1,2-a]pyrimidin-4-one], for which it took 113 nM to reach half-maximal inhibition (IC50).
The value for `Cn1c(=O)c(F)cn2c(=O)c(-c3cnn(CC(F)(F)C(F)(F)F)c3)c(C(F)(F)F)nc12` [Example 63, 3-Fluoro-1-methyl-7-[1-(2,2,3,3,3-pentafluoropropyl)-1H-pyrazol-4-yl]-8-(trifluoromethyl)-1H,2H,6H-[1,3]diazino[1,2-a]pyrimidine-2,6-dione] was 43.6 nM.
Under `COc1ccn2c(=O)c(-c3ccn(CC(F)(F)C(F)(F)F)n3)c(C(F)(F)F)nc2c1` [Example 39-1, 8-Methoxy-3-[1-(2,2,3,3,3-pentafluoropropyl)-1H-pyrazol-3-yl]-2-(trifluoromethyl)-4H-pyrido[1,2-a]pyrimidin-4-one] stands 85 nM; under `COc1ccn2c(=O)c(-c3ccc(OC(C)C#N)cc3)c(C(F)(F)F)nc2c1` (centres unmarked) [Example 8-4, 2-(4-(8-methoxy-4-oxo-2-(trifluoromethyl)-4H-pyrido[1,2-a]pyrimidin-3-yl)phenoxy)propanenitrile], 16.2 nM.
The compound `Cc1ccc2nc(C(F)(F)F)c(-c3cnn(CC(F)(F)C(F)(F)F)c3)c(=O)n2c1` [Example 39-19, 7-methyl-3-[1-(2,2,3,3,3-pentafluoropropyl)-1H-pyrazol-4-yl]-2-(trifluoromethyl)-4H-pyrido[1,2-a]pyrimidin-4-one] registered a half-inhibitory concentration (IC50) of 1.7 nM.
In turn, `COc1ccn2c(=O)c(-c3ccc(OCC(F)(F)F)nc3)c(C(F)F)nc2c1` [Example 1-13, 2-(difluoromethyl)-8-methoxy-3-(6-(2,2,2-trifluoroethoxy)-3-pyridinyl)-4H-pyrido[1,2-a]pyrimidin-4-one] showed a half-inhibitory concentration (IC50) of 34.2 nM.
For the compound `O=c1c(-c2cnn(CC(F)(F)C(F)(F)F)c2)c(C(F)(F)F)nc2cc(OCCl)ccn12` [Example 46, 8-(Chloromethoxy)-3-[1-(2,2,3,3,3-pentafluoropropyl)-1H-pyrazol-4-yl]-2-(trifluoromethyl)-4H-pyrido[1,2-a]pyrimidin-4-one], the IC50 is 16.6 nM.
For `COc1ccn2c(=O)c(-c3cnn(CCC(F)(F)F)c3)c(C(F)(F)F)nc2n1` [Example 2-4, 8-methoxy-2-(trifluoromethyl)-3-(1-(3,3,3-trifluoropropyl)-1H-pyrazol-4-yl)-4H-pyrimido[1,2-a]pyrimidin-4-one], the IC50 stood at 57.4 nM.
Consider `COc1ccn2c(=O)c(-c3ccc(OCC(F)(F)F)nc3F)c(C(F)(F)F)nc2c1` [Example 7-1, 3-(2-Fluoro-6-(2,2,2-trifluoroethoxy)-3-pyridinyl)-8-methoxy-2-(trifluoromethyl)-4H-pyrido[1,2-a]pyrimidin-4-one], for which it took 125 nM to reach half-maximal inhibition (IC50).
`O=c1c(-c2cnn(CC(F)(F)C(F)(F)F)c2)c(C(F)(F)F)nc2cc(O)c(F)cn12` [Example 43, 7-Fluoro-8-hydroxy-3-[1-(2,2,3,3,3-pentafluoropropyl)-1H-pyrazol-4-yl]-2-(trifluoromethyl)-4H-pyrido[1,2-a]pyrimidin-4-one] yielded a concentration for half-maximal inhibition (IC50) of 742 nM.
`COc1ccn2c(=O)c(-c3cnc(OCC(F)(F)F)s3)c(C(F)(F)F)nc2c1` [Example 56, 8-Methoxy-3-[2-(2,2,2-trifluoroethoxy)-1,3-thiazol-5-yl]-2-(trifluoromethyl)-4H-pyrido[1,2-a]pyrimidin-4-one] returned an IC50 of 21.5 nM.
`COc1ccn2c(=O)c(-c3ccc(CCC#N)cc3)c(C(F)(F)F)nc2c1` [Example 1-1, 3-(4-(8-Methoxy-4-oxo-2-(trifluoromethyl)-4H-pyrido[1,2-a]pyrimidin-3-yl)phenyl)propanenitrile]: it took 197 nM to reach half-maximal inhibition (IC50).
As to `Cc1ccn2c(=O)c(-c3ccc(OCC(F)(F)F)cc3)c(C(F)(F)F)nc2c1` [Example 1-78, 8-methyl-3-(4-(2,2,2-trifluoroethoxy)phenyl)-2-(trifluoromethyl)-4H-pyrido[1,2-a]pyrimidin-4-one], half-maximal inhibition (IC50) was put at 2.7 nM.
Take `CC(=O)Nc1ccn2c(=O)c(-c3ccc(OCC(F)(F)F)cc3)c(C(F)(F)F)nc2c1` [Example 1-31, N-(4-oxo-3-(4-(2,2,2-trifluoroethoxy)phenyl)-2-(trifluoromethyl)-4H-pyrido[1,2-a]pyrimidin-8-yl)acetamide]: the IC50 worked out at 1720 nM. This IC50 is about 640-fold higher than that of the compound before.
The value for `O=c1c(-c2cnn(CC(F)(F)C(F)(F)F)c2)c(C(F)(F)F)nc2cc(OCCl)cnn12` [Example 48, 8-(Chloromethoxy)-3-[1-(2,2,3,3,3-pentafluoropropyl)-1H-pyrazol-4-yl]-2-(trifluoromethyl)-4H-pyrimido[1,2-b]pyridazin-4-one] was 119 nM.
